Values of other authors, collected in patent US20090274776A1, “Method for the Diagnosis and Treatment of Conditions Involving Aberrant Erythrocyte Potassium Levels” (THE REGENTS OF THE UNIVERSITY OF MICHIGAN, priority 2006, published 2009).

Tests used:
[1] = test system: RBC; conditions: RBC treated with the substance; by activation of IKCa
[2] = target: T1, KCa in RBC (Homo sapiens, UniProt O15554); conditions: red blood cells
T1 construct: host or cells: red blood cells (endogenous channel)

[3] = test system: endothelium-derived hyperpolarizing factor (EDHF); conditions: in the presence of apamin

Structure (SMILES)	K+ efflux in RBC [1]	effect on KCa in RBC [2]	EDHF relaxation [3]
Nc1nc2c(nc(Br)n2[C@@H]2O[C@@H]3COP(=O)(O)O[C@H]3[C@H]2O)c(=O)[nH]1 [8Br-cGMP]	increased	–	–
OC1(c2cccc(Cl)c2)C2=NCCCN2c2ccccc21 (stereo not shown) [Ciclazindol]	–	inhibits	abolishes
CC1(C)Oc2ccc(C#N)cc2C(N2CCCC2=O)C1O (stereo not shown) [cromakalim]	–	opens	–
